We go through 10 molecules from patent US6329421A, “Diaryl bicyclic heterocycles as inhibitors of cyclooxygenase-2” (Merck Frosst Canada & Co., priority 1997, dated 2001).

Each structure is given as a SMILES string.

The target in one assay is T1, cyclooxygenase-2 (Homo sapiens, UniProt P35354).
T1 construct: human osteosarcoma 143 cells (which specifically express cyclooxygenase-2); endogenous in cells; host or cells: human osteosarcoma 143 cells
T1 sequence (P35354 18-604): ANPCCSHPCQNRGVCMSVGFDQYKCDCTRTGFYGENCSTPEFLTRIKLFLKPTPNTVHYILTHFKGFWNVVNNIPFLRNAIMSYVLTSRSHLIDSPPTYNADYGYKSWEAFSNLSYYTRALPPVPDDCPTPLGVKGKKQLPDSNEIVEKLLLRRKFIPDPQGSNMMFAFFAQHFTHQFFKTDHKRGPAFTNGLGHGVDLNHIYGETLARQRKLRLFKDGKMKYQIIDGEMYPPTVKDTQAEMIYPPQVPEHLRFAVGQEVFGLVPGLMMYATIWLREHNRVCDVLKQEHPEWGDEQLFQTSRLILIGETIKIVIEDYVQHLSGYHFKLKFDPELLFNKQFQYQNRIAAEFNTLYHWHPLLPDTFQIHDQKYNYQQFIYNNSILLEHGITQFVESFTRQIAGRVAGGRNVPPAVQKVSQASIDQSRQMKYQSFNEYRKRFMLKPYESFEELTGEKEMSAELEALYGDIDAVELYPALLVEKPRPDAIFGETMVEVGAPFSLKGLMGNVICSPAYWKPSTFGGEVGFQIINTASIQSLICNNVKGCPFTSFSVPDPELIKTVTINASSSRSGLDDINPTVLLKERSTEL
Nature of the assay: Inhibition of cyclooxygenase activity: Cox-2 (PGE2 production in response to arachidonic acid, radioimmunoassay; human osteosarcoma 143 cells). In kind it is cell-based. The settings on record: read-out: Cox-2% inhib.; for inhibition at 0.1 µM: Conc. 100 nM; for inhibition at 1 µM: Conc. 1000 nM. As for the experimental part:
(§1) Compounds were tested as inhibitors of cyclooxygenase activity in whole cell and microsomal cyclooxygenase assays. Both of these assays measured prostaglandin E2 synthesis in response to arachidonic acid, using a radioimmunoassay. Cells used for whole cell assays, and from which microsomes were prepared for microsomal assays, were human osteosarcoma 143 cells (which specifically express cyclooxygenase-2) and human U-937 cells (which specifically express cyclooxygenase-1). In these assays, 100% activity is defined as the difference between prostaglandin E2 synthesis in the absence and presence of arachidonate addition. Compounds of the present invention are inhibitors of cyclooxygenase-2 and are thereby useful in the treatment of cyclooxygenase-2 mediated diseases as enumerated above. The activities of the compounds against cyclooxygenase may be seen in the representative results shown below. In the assay, inhibition is determined by measuring the amount of prostaglandin E2 (PGE2) synthesized in the presence of arachidonic acid, cyclooxygenase-1 or cyclooxygenase-2 and a putative inhibitor. The IC50 values represent the concentration of putative inhibitor required to return PGE2 synthesis to 50% of that obtained as compared to the uninhibited control. For purposes of this specification, a compound is a selective inhibitor of COX-2 over COX-1 if the ratio of IC50 's for COX-1: COX-2 is 100 or greater, preferably 500 or greater. The results for inhibition of PGE2 production may be seen in Table III.

In a further assay the target is T2, cyclooxygenase-1 (Homo sapiens, UniProt P23219).
T2 construct: human U-937 cells (which specifically express cyclooxygenase-1); endogenous in cells; host or cells: human U-937 cells
T2 sequence (P23219 24-599): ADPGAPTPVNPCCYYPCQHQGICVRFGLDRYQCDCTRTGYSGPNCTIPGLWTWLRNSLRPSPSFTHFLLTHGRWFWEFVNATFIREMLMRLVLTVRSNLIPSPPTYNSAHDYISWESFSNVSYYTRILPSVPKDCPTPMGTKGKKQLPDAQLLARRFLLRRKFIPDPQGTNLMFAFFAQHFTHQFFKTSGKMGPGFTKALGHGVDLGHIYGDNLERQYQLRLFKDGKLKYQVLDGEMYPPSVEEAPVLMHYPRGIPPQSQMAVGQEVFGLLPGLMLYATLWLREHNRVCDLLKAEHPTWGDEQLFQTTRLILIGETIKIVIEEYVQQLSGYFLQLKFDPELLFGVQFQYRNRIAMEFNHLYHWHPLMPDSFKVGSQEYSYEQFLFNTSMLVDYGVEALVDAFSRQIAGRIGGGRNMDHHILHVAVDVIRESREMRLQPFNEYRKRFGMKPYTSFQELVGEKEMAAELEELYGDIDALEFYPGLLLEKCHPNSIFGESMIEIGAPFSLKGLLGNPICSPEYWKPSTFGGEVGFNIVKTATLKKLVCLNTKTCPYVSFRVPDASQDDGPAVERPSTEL
Nature of the assay: Inhibition of cyclooxygenase activity: Cox-1 (PGE2 production in response to arachidonic acid, radioimmunoassay; human U-937 cells). It counts as cell-based. The settings on record: read-out: Cox-1% inhib.; for inhibition at 0.1 µM: Conc. 100 nM; for inhibition at 1 µM: Conc. 1000 nM. As for the experimental part: as §1

Take `CS(=O)(=O)c1ccc(-c2c(-c3ccccc3)oc3ccccc23)cc1` [Example 1, 3-(4-(Methylsulfonyl)phenyl)-2-phenylbenzo[b]furan]: the inhibition at 0.1 µM was determined as 94% at cyclooxygenase-2 and 0% on cyclooxygenase-1.

Turning to `CS(=O)(=O)c1ccc(-c2c(-c3ccccc3)sc3ccccc23)cc1` [Example 2, 3-(4-(Methanesulfonyl)phenyl)-2-phenylbenzo[b]thiophene], the inhibition at 1 µM at cyclooxygenase-2 stood at 17%; at cyclooxygenase-1 it was 3%.

Turning to `CS(=O)(=O)c1ccc(C2=C(c3ccccc3)C(=O)c3ccccc32)cc1` [Example 3, 3-(4-(Methylsulfonyl)phenyl)-2-phenylinden-1-one], the inhibition at 0.1 µM at cyclooxygenase-2 was found to be 80%; at cyclooxygenase-1, 5%.

For `CS(=O)(=O)c1ccc(-c2c(-c3ccc(F)cc3)[nH]c3ccccc23)cc1` [Example 4, 2-(4-Fluorophenyl)-3-(4-(methylsulfonyl)phenyl)indole], on cyclooxygenase-2 (Conc. 10 nM), the inhibition at 0.01 µM was 58%. Moreover, on cyclooxygenase-1, the inhibition at 1 µM came out at 0%.

For the molecule `CS(=O)(=O)c1ccc(-c2[nH]c3ccccc3c2-c2ccc(F)cc2)cc1` [Example 5, 3-(4-Fluorophenyl)-2-(4-(methylsulfonyl)phenyl)indole], the inhibition at 0.1 µM at cyclooxygenase-2 stood at 86%; at cyclooxygenase-1, 21%.

As to `CS(=O)(=O)c1ccc(-c2c(-c3ccc(F)cc3)sc3c2COC3=O)cc1` [Example 6, 2-(4-Fluorophenyl)-3-(4-(methylsulfonyl)phenyl)-4H-thieno[2,3-c]furan-6-one], the inhibition at 0.015 µM at cyclooxygenase-2 (Conc. 15 nM) was 50%; on cyclooxygenase-1 (Conc. 15 nM), 0%.

Take `CS(=O)(=O)c1ccc(-c2c(-c3ccc(F)c(F)c3)sc3c2COC3=O)cc1` [Example 7, 2-(3,4-Difluorophenyl)-3-(4-(methylsulfonyl)phenyl)-4H-thieno[2,3-c]-furan-6-one]: at cyclooxygenase-2, the inhibition at 0.1 µM is 64% and the inhibition at 1 µM was 100%. Moreover, the inhibition at 1 µM on cyclooxygenase-1 came to 4%.

Consider `NS(=O)(=O)c1ccc(-c2c(-c3ccc(F)cc3)sc3c2COC3=O)cc1` [Example 8, 2-(4-Fluorophenyl)-3-(4-(aminosulfonyl)phenyl)-4H-thieno[2,3-c]furan-6-one], for which the inhibition at 0.1 µM at cyclooxygenase-2 was 42%. Besides, the inhibition at 10 µM on cyclooxygenase-1 (Conc. 10000 nM) is 26%.

Consider `NS(=O)(=O)c1ccc(-c2c(-c3ccc(F)c(F)c3)sc3c2COC3=O)cc1` [Example 9, 2-(3,4-Difluorophenyl)-3-(4-(aminosulfonyl)phenyl)4H-thieno-[2,3-c]furan-6-one], for which, at cyclooxygenase-2, the inhibition at 0.1 µM amounted to 98% and the inhibition at 1 µM stood at 99%. For the same molecule, the inhibition at 1 µM on cyclooxygenase-1 came to 21%.

As to `CS(=O)(=O)c1ccc(-c2c(-c3ccccc3)sc3c2CC(=O)OC3)cc1` [Example 10, 3-(4-(Methylsulfonyl)phenyl)-2-phenyl-4,7-dihydro-thieno[2,3-c]pyran-5-one], at cyclooxygenase-2, the inhibition at 0.1 µM came to 65% and the inhibition at 1 µM worked out at 91%. In addition, the inhibition at 1 µM at cyclooxygenase-1 is 28%.
